From ChEMBL document CHEMBL4308884, “Development and characterization of a CNS-penetrant benzhydryl hydroxamic acid class IIa histone deacetylase inhibitor” (Bioorg Med Chem Lett, 2019)
≈ marks a conversion by molar mass, not a printed value.

What was measured:
[1] = Apparent passive permeability in MDCK cells at 10 uM after 1 hr by LC-MS/MS analysis; assay type: ADME, cell-based, Canis lupus familiaris; settings: dog; for Papp: mdck, 1 h, 10 µM
[2] = Kinetic aqueous solubility of the compound; assay type: physicochemical; settings: buffer; read-out: Kinetic_solubility

Structure (SMILES) | Papp [1] | solubility kinetic [2] | Papp at 1 h, 10 µM ([1]; MDCK)
O=C(NO)C(c1ccc(-c2nccc(C(F)(F)F)n2)cc1)c1ccccc1F (stereo unspecified) | Nd(Toxic) | 141 µM (≈ 55.2 µg/mL) | –
Cc1cnc(-c2ccc(C(C(=O)NO)c3ccccc3F)cc2)nc1 (stereo unspecified) | Nd(Toxic) | 52 µM (≈ 17.5 µg/mL) | –
O=C(NO)C(c1ccc(-c2cnccn2)cc1)c1ccccc1F (stereo unspecified) | – | 164 µM (≈ 53 µg/mL) | 46.4 ×10⁻⁶ cm/s
